Measurements from PubChem BioAssay (NCI).
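Following 48 hours of exposure in 96-well plates, responses at five concentrations were used to interpolate endpoints linearly. Here, GI50 denotes the concentration required for 50% inhibition of growth. Definition used: TGI = concentration required for complete inhibition of growth.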

Legend:
Assay in all cases: NCI tumour cell line growth inhibition, 48 h
[1] = test system: PC-3 prostate
[2] = test system: T-47D breast
[3] = test system: A549 NSCLC
[4] = test system: MOLT-4 leukemia
[5] = test system: SF-539 CNS
[6] = test system: HT29 colon
[7] = test system: ACHN renal
[8] = test system: SW-620 colon
[9] = test system: HCT-116 colon
[10] = test system: MALME-3M melanoma
[11] = test system: SF-295 CNS
[12] = test system: KM12 colon
[13] = test system: HS 578T breast
[14] = test system: NCI-H23 lung
[15] = test system: CAKI-1 renal
[16] = test system: OVCAR-3 ovarian
[17] = test system: HCT-15 colon
[18] = test system: IGROV1 ovarian
[19] = test system: RPMI-8226 leukemia
[20] = test system: OVCAR-5 ovarian
[21] = test system: NCI-H522 lung
[22] = test system: LOX IMVI melanoma
[23] = test system: NCI/ADR-RES ovarian
[24] = test system: NCI-H226 lung
[25] = test system: HOP-92 NSCLC
[26] = test system: COLO 205 colon
[27] = test system: SNB-75 CNS
[28] = test system: M14 melanoma
[29] = test system: U251 CNS
[30] = test system: HL-60(TB) leukemia
[31] = test system: BT-549 breast
[32] = test system: 786-0 renal
[33] = test system: HCC-2998 colon
[34] = test system: MCF7 breast
[35] = test system: A498 renal
[36] = test system: NCI-H460 lung
[37] = test system: SK-MEL-2 melanoma
[38] = test system: HOP-62 NSCLC
[39] = test system: SK-OV-3 ovarian
[40] = test system: DU-145 prostate
[41] = test system: SR leukemia
[42] = test system: K-562 leukemia
[43] = test system: UACC-62 melanoma
[44] = test system: SF-268 CNS
[45] = test system: SK-MEL-5 melanoma
[46] = test system: EKVX NSCLC
[47] = test system: SK-MEL-28 melanoma
[48] = test system: OVCAR-8 ovarian
[49] = test system: MDA-MB-435
[50] = test system: MDA-MB-468 breast
[51] = test system: OVCAR-4 ovarian
[52] = test system: TK-10 renal
[53] = test system: UO-31 renal
[54] = test system: SN12C renal
[55] = test system: RXF 393 renal
[56] = test system: SNB-19 CNS
[57] = test system: CCRF-CEM leukemia
[58] = test system: UACC-257 melanoma
[59] = test system: MDA-MB-231 breast

Molecule `CN1CCN(Cc2ccc(NC(=O)c3cncc(C#Cc4cnc5ccc(N[C@@H]6CCOC6)nn45)c3)cc2C(F)(F)F)CC1` has a GI50 [1] of 161 nM, a TGI [1] of 1160 nM and a GI50 [2] of 323 nM. It also gave a TGI [2] of 3.14 µM, a GI50 [3] of 138 nM and a TGI [3] of 1010 nM. It also gave a GI50 [4] of 26.6 nM, a TGI [4] of 919 nM and a GI50 [5] of 19.3 nM. The TGI [5] was 74.2 nM, the GI50 [6] was 87.9 nM and the TGI [6] was 415 nM. It also gave a GI50 [7] of 256 nM, a TGI [7] of 1040 nM and a GI50 [8] of 94.4 nM. The TGI [8] was 603 nM, the GI50 [9] was 48.6 nM and the TGI [9] was 640 nM. For the same molecule, the GI50 [10] was 89.7 nM, the TGI [10] was 299 nM and the GI50 [11] was 88.8 nM. The TGI [11] was 587 nM, the GI50 [12] was less than 9.7 nM and the TGI [12] was 761 nM. For the same molecule, the GI50 [13] was 28.8 nM, the TGI [13] was 398 nM and the GI50 [14] was 108 nM. It also gave a TGI [14] of 265 nM, a GI50 [15] of 128 nM and a TGI [15] of 484 nM. The GI50 [16] was 125 nM, the TGI [16] was 509 nM and the GI50 [17] was 335 nM. The TGI [17] was 1370 nM, the GI50 [18] was 107 nM and the TGI [18] was 531 nM. The GI50 [19] was 201 nM, the TGI [19] was 1570 nM and the GI50 [20] was 202 nM. For the same molecule, the TGI [20] was 618 nM, the GI50 [21] was 122 nM and the TGI [21] was 280 nM. For the same molecule, the GI50 [22] was 55.4 nM, the TGI [22] was 187 nM and the GI50 [23] was 2780 nM. It also gave a TGI [23] of 17.1 µM, a GI50 [24] of 14.4 nM and a TGI [24] of 218 nM. The GI50 [25] was 27.7 nM, the TGI [25] was 133 nM and the GI50 [26] was 30.1 nM. It also gave a TGI [26] of 86.8 nM, a GI50 [27] of 126 nM and a TGI [27] of 300 nM. It also gave a GI50 [28] of 78.4 nM, a TGI [28] of 245 nM and a GI50 [29] of 216 nM. The TGI [29] was 879 nM, the GI50 [30] was 85.5 nM and the TGI [30] was 759 nM. The GI50 [31] was 169 nM, the TGI [31] was 631 nM and the GI50 [32] was 235 nM. It also gave a TGI [32] of 712 nM, a GI50 [33] of 198 nM and a TGI [33] of 553 nM. The GI50 [34] was 51.8 nM, the TGI [34] was 518 nM and the GI50 [35] was 269 nM. The TGI [35] was 475 nM, the GI50 [36] was 104 nM and the TGI [36] was 374 nM. The GI50 [37] was 173 nM, the TGI [37] was 318 nM and the GI50 [38] was 104 nM. For the same molecule, the TGI [38] was 355 nM, the GI50 [39] was 274 nM and the TGI [39] was 713 nM. For the same molecule, the GI50 [40] was 148 nM, the TGI [40] was 557 nM and the GI50 [41] was 99.2 nM. For the same molecule, the TGI [41] was 7.32 µM, the GI50 [42] was less than 9.7 nM and the TGI [42] was 10.1 µM. For the same molecule, the GI50 [43] was 156 nM, the TGI [43] was 539 nM and the GI50 [44] was 122 nM. It also gave a TGI [44] of 377 nM, a GI50 [45] of 193 nM and a TGI [45] of 556 nM. For the same molecule, the GI50 [46] was 120 nM, the TGI [46] was 383 nM and the GI50 [47] was 193 nM. The TGI [47] was 629 nM, the GI50 [48] was 189 nM and the TGI [48] was 963 nM. It also gave a GI50 [49] of 113 nM, a TGI [49] of 338 nM and a GI50 [50] of 60 nM. It also gave a TGI [50] of 194 nM, a GI50 [51] of 138 nM and a TGI [51] of 646 nM. It also gave a GI50 [52] of 245 nM, a TGI [52] of 646 nM and a GI50 [53] of 1190 nM. The TGI [53] was 2930 nM, the GI50 [54] was 34 nM and the TGI [54] was 271 nM. It also gave a GI50 [55] of 71.3 nM, a TGI [55] of 217 nM and a GI50 [56] of 222 nM. For the same molecule, the TGI [56] was 769 nM, the GI50 [57] was less than 9.7 nM and the TGI [57] was 356 nM. The GI50 [58] was 361 nM, the TGI [58] was 4.38 µM and the GI50 [59] was 42.3 nM. It also gave a TGI [59] of 289 nM.
